The record followed here is PMC9529094, “Identification of natural cytochalasins as leads for neglected tropical diseases drug discovery” (PLoS ONE, 2022).

Data set [1] in a line: physchem. The note with it: pH 7.4, from LC retention time calibration; read-out: LogD 7.4 (Oct/buff). It counts as physicochemical. How it is done:
To analyse cytochalasin lipophilicity, a methodology based on the retention time of molecules in stationary phase was used in LC-MS/MS (liquid chromatography-tandem mass spectrometry) Prominence UFLC (Shimadzu Corporation, Kyoto, Japan) and an interface with an LCMS-8045 triple quadrupole mass spectrometer (Shimadzu Corporation, Kyoto, Japan) with an electrospray ionization source (ESI). The chromatogram was obtained using a Supelco Ascentis express RP amide HPLC column (5 cm x 2.1 mm, 2.7 μM). The mobile phases consisted of 5% methanol in 10 mM ammonium acetate pH 7.4 (A) and 100% methanol (B). The mobile phase was eluted in binary gradient mode, and the gradient was as follows: 0 min, 95% A; 0.3 mins. 100% A; 5.2 mins. 0% A; 5.6 mins. 0% A; 5.8 mins. 100% A; 7.0 mins. And 100% A. The run time was 7 minutes, and the sample injection volume was 5 μL. Test compounds were prepared at 1.0 mg/mL by adding the stock solution at (1:1) mobile phases A:B (internal standard at 200 nM), and the DMSO concentration was lower than 2%. […]. The retention time (in minutes) of each of the eight standards was plotted against their LogD values. The resulting equation for the calibration curve (y = mx + b) was used to calculate the LogD values for the cytochalasins.

A short description of data set [2]: physchem. In kind it is physicochemical. Particulars: aqueous buffer, kinetic from dmso stock. How it is done: The plate was sealed and shaken for 24 hours (200 rpm, r.t.). The precipitates on the incubation plate were removed by centrifugation (15 min., 3000 rpm, r.t.). The supernatant fractions were quantified by LC-MS/MS (liquid chromatography-tandem mass spectrometry) Prominence UFLC (Shimadzu Corporation, Kyoto, Japan) and interface with an LCMS-8045 triple quadrupole mass spectrometer (Shimadzu Corporation, Kyoto, Japan) with an electrospray ionization source (ESI). From a 10 mM standard solution, an intermediate standard dilution of 0.5 mM in a 1:1 acetonitrile:water solution was prepared. Calibration curves were prepared for each cytochalasin by diluting the intermediate standard several times to reach the desired concentrations of 50, 40, 20, 2, and 1 μM. The resulting equation for the calibration curve (y = mx + b) was used to calculate the experimental concentration values for the cytochalasins. The chromatogram for analysis was obtained on a Supelco Ascentis express C18 column (3 cm x 2.1 mm, 5 μM). The mobile phases consisted of water + 0.05% formic acid (A) and acetonitrile + 0.05% formic acid (B). The mobile phase was eluted in binary gradient mode, and the gradient was as follows: 0 min, 98% A; 1.2 mins. 2% A; 2.0 mins: 2% A; and re-equilibration time: 0.6 min., 98% A. The run time was 2 minutes, the sample injection volume was 5 μL, and the flow rate was 0.6 mL/min.

Data set [3] relates to intracellular T. cruzi Tulahuen LacZ amastigotes. Briefly: microbe, parasite or virus in culture. It counts as cell-based, Trypanosoma cruzi. The note with it: for IC50: Trypanosoma cruzi, intracellular amastigotes, Tulahuen LacZ, HFF-1 host cells, 120 h, read-out: T. cruzi IC50 (μM ± SD); for SI^1 (CC50 HFF-1/IC50 T. cruzi) / SI^3 (CC50 HepG2/IC50 T. cruzi): selectivity index. As for the experimental part: The epimastigote forms of the T. cruzi Tulahuen strain, which expresses the E. coli β-galactosidase gene lacZ [11], were grown in liver infusion tryptone (LIT) supplemented with 10% FCS (Cultilab) and 1% pen/strep (Sigma–Aldrich) at 28°C. Metacyclogenesis from epimastigotes to trypomastigotes was induced by the incubation of the epimastigotes in Grace’s insect medium (Sigma-Aldrich, 28°C) every 5 days. After 5 days, the trypomastigote forms were used to infect the HFF-1 cells. The promastigote forms of L. infantum were maintained in Schneider’s insect medium (Sigma-Aldrich) supplemented with 10% FCS (Cultilab) and 1% pen/strep (Sigma-Aldrich) at 28°C and subcultured every 6 or 7 days.
In vitro assays against T. cruzi were performed as described previously. HFF-1 human fibroblasts were seeded at 4x10^3/well in 96-well tissue culture plates in DMEM (Cultilab) without phenol red and then incubated overnight (37°C, 5% CO2). Next, trypomastigotes were added at 4x10^4/well, and the plates were incubated (37°C, 5% CO2). After 24 h, 2-fold serial dilutions of the test compounds were added at concentrations ranging from 64 to 0.12 μM, and the plates were then incubated (37°C, 5% CO2). Each compound concentration was evaluated in duplicate. All the plates included BZ (64–0.12 μM) (Sigma-Aldrich) as a positive control and untreated wells (100% growth) as a negative control. After 120 h, chlorophenol red β-D-galactopyranoside (CPRG, Sigma-Aldrich) was added to each well. The absorbance was measured at 570 nm in an automated SpectraMax 384 microplate reader (Sunnyvale, CA, USA), and the data were analysed using GraphPad Prism version 8.0 (San Diego, CA, USA) for IC50 value calculation.
The analyses were performed using GraphPad Prism version 8.0 (GraphPad Software, San Diego, CA, USA). Both the IC50 and CC50 values were calculated by adjusting the sigmoid dose-response curves, and the selectivity index (SI) values were determined by CC50/IC50 [16]. Statistical analyses were performed using one-way ANOVA followed by Dunnett’s multiple comparison test.

The nature of a further data set: in vitro. Particulars: human, 72 h, MTS. In kind it is cell-based. As for the experimental part:
THP-1 (human monocyte cell line) cells were cultivated in RPMI medium supplemented with 10% foetal calf serum (FCS) (Cultilab, Campinas, SP, BR) and 1% penicillin and streptomycin (pen/strep—Sigma-Aldrich) at 37°C under 5% CO2, and HFF-1 (human fibroblast) and HepG2 (hepatocytes) cells were cultivated in DMEM without phenol red (Cultilab) supplemented with 10% FBS (Sigma-Aldrich) and 1% pen/strep at 37°C under 5% CO2.
The cytotoxicity of the compounds against HFF-1 fibroblasts and HepG2 hepatocytes was evaluated using the MTS tetrazolium assay (Promega, Madison, WI, USA). HFF-1 fibroblasts were seeded at 4x10^3/well in 96-well culture plates in DMEM without phenol red and incubated overnight (37°C, 5% CO2). HepG2 hepatocytes were seeded at 7x10^3/well in 96-well culture plates in DMEM (Cultilab) with supplements (10% FCS, 1% pen/strep) and incubated overnight (37°C, 5% CO2). The compounds were added in 2-fold serial dilutions at the same concentrations described before, and the plates were incubated as described before. Each compound concentration was evaluated in duplicate. All the plates included doxorubicin (DOX) (Sigma-Aldrich) as a positive control (10–0.01 μM) and untreated wells as a negative control (100% growth). After 72 h, 15 μL of MTS (Promega) was added, and the plates were incubated for 4 h. The absorbance was measured at 490 nm in an automated SpectraMax 384 microplate reader (Sunnyvale, CA, USA), and the data were analysed using GraphPad Prism version 8.0 for CC50 value calculation. The percentage of nonviable cells was determined and compared to the negative control wells (100% growth).

[4] abbreviates: PBS pH 2.0, 24 h, read-out: Kinetic Solubility pH 2.0 (LogS) (converted).
Where [5] appears, read: PBS pH 7.4, 24 h, read-out: Kinetic Solubility pH 7.4 (LogS) (converted).

≈ marks a conversion by molar mass, not a printed value. Where two headings read alike, the source gives them in different places.

By kinetic solubility is commonly meant solubility judged after dilution from a stock solution rather than from solid. What is called IC50 is the point on the concentration scale where inhibition reaches its midpoint. As a reminder, the CC50 is the concentration giving 50% cytotoxicity. As to `C=C1[C@@H](C)[C@H]2[C@H](Cc3ccccc3)NC(=O)[C@]23OC(=O)/C=C/C(=O)CCC[C@@H](C)C/C=C/[C@H]3[C@@H]1O` [Cytochalasin A], the chromatographic logD in “physchem [1]” amounted to 3.907 ± 0.014. Also, the solubility (kinetic) in the data set “physchem [2]” (setting [4]) was 39.8 µM (≈ 19 µg/mL). The solubility (kinetic) in the data set “physchem [2]” (setting [5]) is 69.2 µM (≈ 33 µg/mL). For the same molecule, in data set [3], the IC50 stood at 3.02 ± 2.16 µM, the “SI^1 (CC50 HFF-1/IC50 T. cruzi)” value is on record as 8.96 and the “SI^3 (CC50 HepG2/IC50 T. cruzi)” value worked out at 6.99. For the same molecule, the CC50 in the data set “in vitro” (read-out: HFF-1 CC50 (μM ± SD)) came to 27.07 ± 0.17 µM. Besides, the CC50 in “in vitro” (read-out: HepG2 CC50 (μM ± SD)) worked out at 21.1 ± 4.51 µM.
On to `C=C1[C@@H](C)[C@H]2[C@H](Cc3ccccc3)NC(=O)[C@]23OC(=O)/C=C/[C@H](O)CCC[C@@H](C)C/C=C/[C@H]3[C@@H]1O` [Cytochalasin B], for which the chromatographic logD in the data set “physchem [1]” came out at 3.361 ± 0.008. The solubility (kinetic) in the data set “physchem [2]” (setting [4]) and in “physchem [2]” (setting [5]) was 77.6 µM (≈ 37.2 µg/mL) throughout. Also, the IC50 in data set [3] worked out at 16.9 ± 1.47 µM. Also, the “SI^1 (CC50 HFF-1/IC50 T. cruzi)” value in data set [3] is 1.29. The “SI^3 (CC50 HepG2/IC50 T. cruzi)” value in data set [3] was 2.74. In addition, the figures for the CC50 in the data set “in vitro” (read-out: HFF-1 CC50 (μM ± SD)) and in “in vitro” (read-out: HepG2 CC50 (μM ± SD)) were 21.8 ± 3.57 µM and 46.3 ± 19.3 µM, respectively.
Regarding `CC(=O)OC1C=CC(C)(O)C(=O)C(C)CC=CC2C(O)C(C)=C(C)C3C(Cc4ccccc4)NC(=O)C123` (centres unmarked) [Cytochalasin C], the chromatographic logD in the data set “physchem [1]” came out at 3.434 ± 0.003. Moreover, the results for the solubility (kinetic) in “physchem [2]” (setting [4]) and in the data set “physchem [2]” (setting [5]) were 17 µM (≈ 8.62 µg/mL) and 46.8 µM (≈ 23.7 µg/mL), respectively. Also, in data set [3], the IC50 amounted to 10.2 ± 1.13 µM. Moreover, the “SI^1 (CC50 HFF-1/IC50 T. cruzi)” value in data set [3] is recorded as 7.45. In addition, in data set [3], the “SI^3 (CC50 HepG2/IC50 T. cruzi)” value is recorded as 2.19. The values for the CC50 in “in vitro” (read-out: HFF-1 CC50 (μM ± SD)) and in “in vitro” (read-out: HepG2 CC50 (μM ± SD)) were 76.3 ± 3.12 µM and 22.5 ± 6.47 µM, respectively.
For the molecule `C=C1[C@@H](C)[C@H]2[C@H](Cc3ccccc3)NC(=O)[C@]23[C@H](OC(C)=O)/C=C/[C@@](C)(O)C(=O)[C@@H](C)C/C=C/[C@H]3[C@@H]1O` [Cytochalasin D], in “physchem [1]”, the chromatographic logD is 3.043 ± 0.004. Further, the solubility (kinetic) was 42.7 µM (≈ 21.7 µg/mL) in “physchem [2]” (setting [4]) and 46.8 µM (≈ 23.7 µg/mL) in “physchem [2]” (setting [5]). Further, in data set [3], the IC50 amounted to 20.2 ± 3.27 µM. Further, the “SI^1 (CC50 HFF-1/IC50 T. cruzi)” value in data set [3] was 4.78. In data set [3], the “SI^3 (CC50 HepG2/IC50 T. cruzi)” value is 6.11. Further, the CC50 in the data set “in vitro” (read-out: HFF-1 CC50 (μM ± SD)) came to 96.5 ± 10 µM; in the data set “in vitro” (read-out: HepG2 CC50 (μM ± SD)), 123 ± 20 µM.
